# According to ChEMBL document CHEMBL4387741, “Optimization of novel reversible Bruton's tyrosine kinase inhibitors identified using Tethering-fragment-based screens” (Bioorg Med Chem, 2019):
# How the values were obtained:
# [1] = target: NUAK family SNF1-like kinase 2 (Homo sapiens) (UniProt Q9H093); assay: Inhibition of wild-type human partial length SNARK (P22 to A333 residues) expressed in mammalian expression system at 1 uM by Kinomescan method relative to control
# [2] = target: Ephrin type-B receptor 4 (Homo sapiens) (UniProt P54760); assay: Inhibition of wild-type human partial length EPHB4 (H585 to G892 residues) expressed in bacterial expression system at 1 uM by Kinomescan method relative to control
# [3] = target: Serine/threonine-protein kinase B-raf (Homo sapiens) (UniProt P15056); assay: Inhibition of wild-type human partial length BRAF (S429 to E741 residues) expressed in mammalian expression system at 1 uM by Kinomescan method relative to control
# Serine/threonine-protein kinase B-raf (Homo sapiens), sequence (P15056 whole entry, the tested form may be a part): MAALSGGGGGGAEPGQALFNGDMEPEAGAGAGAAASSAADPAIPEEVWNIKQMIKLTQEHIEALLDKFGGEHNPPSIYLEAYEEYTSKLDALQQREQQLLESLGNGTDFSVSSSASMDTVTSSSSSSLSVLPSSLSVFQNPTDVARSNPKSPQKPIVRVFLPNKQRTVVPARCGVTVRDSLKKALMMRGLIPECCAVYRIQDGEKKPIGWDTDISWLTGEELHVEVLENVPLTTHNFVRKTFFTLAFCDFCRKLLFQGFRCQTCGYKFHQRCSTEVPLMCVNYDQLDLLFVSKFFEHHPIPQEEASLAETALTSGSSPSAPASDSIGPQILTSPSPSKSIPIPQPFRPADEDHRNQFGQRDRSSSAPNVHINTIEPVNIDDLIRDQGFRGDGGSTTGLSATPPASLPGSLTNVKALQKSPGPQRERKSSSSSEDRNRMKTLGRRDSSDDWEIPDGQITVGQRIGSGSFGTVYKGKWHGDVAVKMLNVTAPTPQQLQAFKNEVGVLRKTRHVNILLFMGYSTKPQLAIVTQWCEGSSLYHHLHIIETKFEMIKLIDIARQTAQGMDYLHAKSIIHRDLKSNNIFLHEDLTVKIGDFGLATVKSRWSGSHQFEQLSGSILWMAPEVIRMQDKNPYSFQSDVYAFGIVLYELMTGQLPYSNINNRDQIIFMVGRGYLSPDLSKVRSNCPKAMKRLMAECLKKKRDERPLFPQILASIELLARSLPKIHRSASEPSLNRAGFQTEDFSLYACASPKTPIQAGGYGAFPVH
# [4] = target: MAP kinase-activated protein kinase 5 (Homo sapiens) (UniProt Q8IW41); assay: Inhibition of wild-type human partial length MAPKAPK5 (M1 to D322 residues) expressed in mammalian expression system at 1 uM by Kinomescan method relative to control
# [5] = target: Dual specificity mitogen-activated protein kinase kinase 7 (Homo sapiens) (UniProt O14733); assay: Inhibition of wild-type human full length MKK7 (M1 to R419 residues) expressed in mammalian expression system at 1 uM by Kinomescan method relative to control
# [6] = target: Mitogen-activated protein kinase kinase kinase 10 (Homo sapiens) (UniProt Q02779); assay: Inhibition of wild-type human partial length MLK2 (V52 to W380 residues) expressed in bacterial expression system at 1 uM by Kinomescan method relative to control
# Mitogen-activated protein kinase kinase kinase 10 (Homo sapiens), sequence (Q02779 whole entry, looked up, the tested form may be a part): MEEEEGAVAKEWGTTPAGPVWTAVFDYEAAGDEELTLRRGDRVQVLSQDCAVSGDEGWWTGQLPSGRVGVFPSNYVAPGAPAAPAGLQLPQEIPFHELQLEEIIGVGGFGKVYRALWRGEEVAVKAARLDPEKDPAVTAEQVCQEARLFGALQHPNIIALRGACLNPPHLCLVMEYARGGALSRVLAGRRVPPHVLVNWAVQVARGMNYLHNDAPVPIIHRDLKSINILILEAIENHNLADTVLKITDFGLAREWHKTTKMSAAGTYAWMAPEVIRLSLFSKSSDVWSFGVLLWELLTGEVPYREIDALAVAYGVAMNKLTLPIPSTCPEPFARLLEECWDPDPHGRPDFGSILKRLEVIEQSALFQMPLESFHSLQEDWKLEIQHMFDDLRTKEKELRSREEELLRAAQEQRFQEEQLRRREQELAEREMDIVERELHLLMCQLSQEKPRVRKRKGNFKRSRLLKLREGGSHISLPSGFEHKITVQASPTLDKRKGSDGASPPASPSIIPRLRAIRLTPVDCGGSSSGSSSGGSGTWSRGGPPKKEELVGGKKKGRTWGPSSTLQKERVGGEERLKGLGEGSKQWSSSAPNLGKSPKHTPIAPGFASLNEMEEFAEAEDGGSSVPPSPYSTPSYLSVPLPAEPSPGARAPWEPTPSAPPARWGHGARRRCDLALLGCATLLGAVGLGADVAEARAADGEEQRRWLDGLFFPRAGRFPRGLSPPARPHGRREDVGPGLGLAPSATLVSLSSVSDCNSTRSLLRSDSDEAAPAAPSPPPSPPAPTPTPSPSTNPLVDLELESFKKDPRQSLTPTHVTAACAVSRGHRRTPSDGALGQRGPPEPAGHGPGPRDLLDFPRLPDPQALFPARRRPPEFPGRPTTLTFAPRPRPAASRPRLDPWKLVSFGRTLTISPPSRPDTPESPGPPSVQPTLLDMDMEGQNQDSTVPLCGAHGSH
# [7] = target: Non-receptor tyrosine-protein kinase TYK2 (Homo sapiens) (UniProt P29597); assay: Inhibition of wild-type human partial length TYK2 JH2 pseudokinase domain (G556 to D888 residues) expressed in mammalian expression system at 1 uM by Kinomescan method relative to control
# [8] = target: Insulin-like growth factor 1 receptor (Homo sapiens) (UniProt P08069); assay: Inhibition of wild-type human partial length IGF1R (L972 to D1294 residues) expressed in bacterial expression system at 1 uM by Kinomescan method relative to control
# [9] = target: Glycogen synthase kinase-3 beta (Homo sapiens) (UniProt P49841); assay: Inhibition of wild-type human full length GSK3B (M1 to T433 residues) expressed in mammalian expression system at 1 uM by Kinomescan method relative to control
# [10] = target: Serine/threonine-protein kinase Nek5 (Homo sapiens) (UniProt Q6P3R8); assay: Inhibition of wild-type human partial length NEK5 (M1 to M279 residues) expressed in bacterial expression system at 1 uM by Kinomescan method relative to control
# [11] = target: MAP/microtubule affinity-regulating kinase 4 (Homo sapiens) (UniProt Q96L34); assay: Inhibition of wild-type human partial length MARK4 (K29 to G340 residues) expressed in bacterial expression system at 1 uM by Kinomescan method relative to control
# [12] = target: G protein-coupled receptor kinase 3 (Homo sapiens) (UniProt P35626); assay: Inhibition of wild-type human full length GRK3 (M1 to L688 residues) expressed in mammalian expression system at 10 uM by Kinomescan method relative to control
# [13] = target: Macrophage-stimulating protein receptor (Homo sapiens) (UniProt Q04912); assay: Inhibition of wild-type human partial length MST1R (I1057 to L1363 residues) expressed in bacterial expression system at 10 uM by Kinomescan method relative to control
# [14] = target: Cyclin-dependent kinase 15 (Homo sapiens) (UniProt Q96Q40); assay: Inhibition of wild-type human full length PFTAIRE2 (M1 to W384 residues) expressed in bacterial expression system at 10 uM by Kinomescan method relative to control
# Cyclin-dependent kinase 15 (Homo sapiens), sequence (Q96Q40 whole entry, the tested form may be a part): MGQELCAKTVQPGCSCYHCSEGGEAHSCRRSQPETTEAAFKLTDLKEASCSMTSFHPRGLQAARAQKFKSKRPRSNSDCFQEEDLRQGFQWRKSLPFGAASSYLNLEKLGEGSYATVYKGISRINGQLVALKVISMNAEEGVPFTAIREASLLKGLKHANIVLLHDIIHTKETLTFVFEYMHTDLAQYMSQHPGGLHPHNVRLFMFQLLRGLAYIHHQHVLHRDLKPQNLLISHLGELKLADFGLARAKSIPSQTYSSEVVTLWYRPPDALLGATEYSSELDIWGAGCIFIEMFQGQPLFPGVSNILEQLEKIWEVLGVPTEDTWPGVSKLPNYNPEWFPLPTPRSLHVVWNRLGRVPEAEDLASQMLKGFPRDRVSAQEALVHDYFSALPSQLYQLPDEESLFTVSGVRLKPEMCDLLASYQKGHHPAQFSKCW
# [15] = target: Interleukin-1 receptor-associated kinase 3 (Homo sapiens) (UniProt Q9Y616); assay: Inhibition of wild-type human partial length IRAK3 (V147 to E596 residues) expressed in bacterial expression system at 10 uM by Kinomescan method relative to control
# [16] = target: Serine/threonine-protein kinase Nek4 (Homo sapiens) (UniProt P51957); assay: Inhibition of wild-type human full length NEK4 (M1 to F841 residues) expressed in mammalian expression system at 10 uM by Kinomescan method relative to control
# Serine/threonine-protein kinase Nek4 (Homo sapiens), sequence (P51957 whole entry, looked up, the tested form may be a part): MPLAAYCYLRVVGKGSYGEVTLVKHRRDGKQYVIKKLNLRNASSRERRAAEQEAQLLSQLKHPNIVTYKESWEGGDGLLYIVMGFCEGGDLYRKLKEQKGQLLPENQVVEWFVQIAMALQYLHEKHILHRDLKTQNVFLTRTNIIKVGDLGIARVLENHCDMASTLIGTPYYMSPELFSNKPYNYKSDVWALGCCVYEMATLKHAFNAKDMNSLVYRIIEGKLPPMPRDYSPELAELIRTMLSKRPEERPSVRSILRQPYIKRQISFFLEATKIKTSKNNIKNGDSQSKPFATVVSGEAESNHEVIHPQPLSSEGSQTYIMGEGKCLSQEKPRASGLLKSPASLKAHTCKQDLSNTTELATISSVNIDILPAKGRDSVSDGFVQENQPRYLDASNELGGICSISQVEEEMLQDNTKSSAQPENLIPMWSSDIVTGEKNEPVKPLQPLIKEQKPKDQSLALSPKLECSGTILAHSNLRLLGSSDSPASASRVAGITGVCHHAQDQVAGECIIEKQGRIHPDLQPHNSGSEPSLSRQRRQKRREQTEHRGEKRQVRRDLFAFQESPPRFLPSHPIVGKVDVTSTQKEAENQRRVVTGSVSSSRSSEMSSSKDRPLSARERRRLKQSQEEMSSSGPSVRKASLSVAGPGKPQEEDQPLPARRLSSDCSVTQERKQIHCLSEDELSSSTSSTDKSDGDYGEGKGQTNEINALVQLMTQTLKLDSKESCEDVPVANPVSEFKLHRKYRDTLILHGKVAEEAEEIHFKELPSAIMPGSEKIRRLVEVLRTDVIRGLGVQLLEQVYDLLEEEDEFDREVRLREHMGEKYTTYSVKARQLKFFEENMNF
# [17] = target: Serine/threonine-protein kinase MRCK gamma (Homo sapiens) (UniProt Q6DT37); assay: Inhibition of wild-type human partial length DMPK2 (S46 to S408 residues) expressed in bacterial expression system at 10 uM by Kinomescan method relative to control
# [18] = target: Mitogen-activated protein kinase kinase kinase 6 (Homo sapiens) (UniProt O95382); assay: Inhibition of wild-type human partial length ASK2 (M278 to R972 residues) expressed in mammalian expression system at 10 uM by Kinomescan method relative to control
# Mitogen-activated protein kinase kinase kinase 6 (Homo sapiens), sequence (O95382 whole entry, the tested form may be a part): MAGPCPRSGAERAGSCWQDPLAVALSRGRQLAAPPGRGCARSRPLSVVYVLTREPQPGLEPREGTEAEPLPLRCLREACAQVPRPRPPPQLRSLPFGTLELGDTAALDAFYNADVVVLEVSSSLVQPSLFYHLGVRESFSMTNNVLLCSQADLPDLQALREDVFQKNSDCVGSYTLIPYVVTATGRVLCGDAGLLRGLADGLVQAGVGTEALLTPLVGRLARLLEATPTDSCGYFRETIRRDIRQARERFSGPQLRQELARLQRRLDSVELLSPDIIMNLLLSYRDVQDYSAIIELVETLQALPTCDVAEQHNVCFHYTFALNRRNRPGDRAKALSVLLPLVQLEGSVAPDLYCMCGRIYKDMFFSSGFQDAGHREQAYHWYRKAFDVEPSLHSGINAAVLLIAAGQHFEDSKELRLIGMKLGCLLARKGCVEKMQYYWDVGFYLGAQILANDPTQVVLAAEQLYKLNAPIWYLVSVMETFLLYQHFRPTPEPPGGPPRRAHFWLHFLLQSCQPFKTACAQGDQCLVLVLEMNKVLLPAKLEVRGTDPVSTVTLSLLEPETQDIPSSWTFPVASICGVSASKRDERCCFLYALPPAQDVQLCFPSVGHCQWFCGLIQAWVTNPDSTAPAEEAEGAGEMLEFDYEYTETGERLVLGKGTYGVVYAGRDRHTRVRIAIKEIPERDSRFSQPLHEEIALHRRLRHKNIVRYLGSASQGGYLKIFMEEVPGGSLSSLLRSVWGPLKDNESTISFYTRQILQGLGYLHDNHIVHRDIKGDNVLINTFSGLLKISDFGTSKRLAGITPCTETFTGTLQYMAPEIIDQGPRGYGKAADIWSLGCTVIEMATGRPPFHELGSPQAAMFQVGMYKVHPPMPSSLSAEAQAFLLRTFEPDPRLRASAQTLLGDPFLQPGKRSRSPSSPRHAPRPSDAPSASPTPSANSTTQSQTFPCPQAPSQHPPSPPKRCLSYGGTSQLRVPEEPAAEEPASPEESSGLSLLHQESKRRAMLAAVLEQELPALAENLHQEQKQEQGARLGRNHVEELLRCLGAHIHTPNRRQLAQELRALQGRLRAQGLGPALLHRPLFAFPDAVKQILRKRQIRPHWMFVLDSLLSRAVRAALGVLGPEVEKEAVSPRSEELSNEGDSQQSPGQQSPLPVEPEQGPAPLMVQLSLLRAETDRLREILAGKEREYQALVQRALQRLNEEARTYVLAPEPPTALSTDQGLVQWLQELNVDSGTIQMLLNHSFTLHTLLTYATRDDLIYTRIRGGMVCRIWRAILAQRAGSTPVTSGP
# [19] = target: Aurora kinase C (Homo sapiens) (UniProt Q9UQB9); assay: Inhibition of wild-type human full length AURKC (M1 to S275 residues) expressed in bacterial expression system at 10 uM by Kinomescan method relative to control
# [20] = test system: Epidermal growth factor receptor (Homo sapiens), P00533 [UNDEFINED MUTATION]; assay: Inhibition of human partial length EGFR L747-E749del/A750P mutant expressed in bacterial expression system at 10 uM by Kinomescan method relative to control
# [21] = target: Casein kinase II subunit alpha (Homo sapiens) (UniProt P68400); assay: Inhibition of wild-type human full length CSNK2A1 (M1 to Q391 residues) expressed in mammalian expression system at 10 uM by Kinomescan method relative to control
# [22] = target: Tyrosine-protein kinase ITK/TSK (Homo sapiens) (UniProt Q08881); assay: Inhibition of wild-type human partial length ITK (R335 to L620 residues) expressed in bacterial expression system at 10 uM by Kinomescan method relative to control
# [23] = target: SRSF protein kinase 1 (Homo sapiens) (UniProt Q96SB4); assay: Inhibition of wild-type human full length SRPK1 (M1 to S655 residues) expressed in bacterial expression system at 10 uM by Kinomescan method relative to control
# [24] = target: Fibroblast growth factor receptor 4 (Homo sapiens) (UniProt P22455); assay: Inhibition of wild-type human partial length FGFR4 (G402 to E713 residues) expressed in bacterial expression system at 10 uM by Kinomescan method relative to control
# Fibroblast growth factor receptor 4 (Homo sapiens), sequence (P22455 22-802 limits assumed): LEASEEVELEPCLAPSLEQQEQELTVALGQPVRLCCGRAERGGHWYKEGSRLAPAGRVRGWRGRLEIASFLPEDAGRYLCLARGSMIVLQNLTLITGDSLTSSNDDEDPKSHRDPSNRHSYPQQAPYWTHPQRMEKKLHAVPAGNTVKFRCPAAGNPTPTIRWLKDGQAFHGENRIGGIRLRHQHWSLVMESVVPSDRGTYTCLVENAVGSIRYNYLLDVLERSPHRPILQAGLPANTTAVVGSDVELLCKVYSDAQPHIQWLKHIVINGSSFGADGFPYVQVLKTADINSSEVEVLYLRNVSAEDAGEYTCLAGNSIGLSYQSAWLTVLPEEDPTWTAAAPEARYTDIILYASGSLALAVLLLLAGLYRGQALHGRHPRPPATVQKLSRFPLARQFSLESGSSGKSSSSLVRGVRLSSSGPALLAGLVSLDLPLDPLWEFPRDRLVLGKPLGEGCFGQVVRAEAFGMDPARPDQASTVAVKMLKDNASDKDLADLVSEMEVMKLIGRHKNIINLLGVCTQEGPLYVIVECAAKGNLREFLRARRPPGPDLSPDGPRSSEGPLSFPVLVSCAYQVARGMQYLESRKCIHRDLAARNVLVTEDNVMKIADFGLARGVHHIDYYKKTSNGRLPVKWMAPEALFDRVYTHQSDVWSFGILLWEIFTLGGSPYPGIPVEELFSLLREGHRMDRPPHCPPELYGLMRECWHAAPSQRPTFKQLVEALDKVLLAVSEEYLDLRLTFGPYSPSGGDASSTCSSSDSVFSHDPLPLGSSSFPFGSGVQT
# [25] = target: Serine/threonine-protein kinase D3 (Homo sapiens) (UniProt O94806); assay: Inhibition of wild-type human partial length PRKD3 (S543 to E863 residues) expressed in bacterial expression system at 10 uM by Kinomescan method relative to control
# [26] = target: Ribosomal protein S6 kinase beta-1 (Homo sapiens) (UniProt P23443); assay: Inhibition of wild-type human partial length S6K1 (M1 to S421 residues) expressed in mammalian expression system at 10 uM by Kinomescan method relative to control
# [27] = target: Dual specificity mitogen-activated protein kinase kinase 2 (Homo sapiens) (UniProt P36507); assay: Inhibition of wild-type human full length MEK2 (M1 to V400 residues) expressed in mammalian expression system at 10 uM by Kinomescan method relative to control
structure (smiles),measurement,setting,value
O=C(Nc1cccc([C@@H]2CN(c3ncnc4[nH]ccc34)CCN2CCO)c1)Nc1c(F)cccc1N1CCCC1,inhibition,[1],6.1%
same,inhibition,[2],95%
same,inhibition,[3],86%
same,inhibition,[4],100%
same,inhibition,[5],74%
same,inhibition,[6],74%
same,inhibition,[7],71%
same,inhibition,[8],100%
same,inhibition,[9],83%
same,inhibition,[10],100%
same,inhibition,[11],77%
O=C(Nc1cccc([C@H]2CCCN(c3ncnc4[nH]ccc34)C2)c1)Nc1ccccc1N1CCCC1,inhibition,[12],71%
same,inhibition,[13],100%
same,inhibition,[14],93%
same,inhibition,[15],92%
same,inhibition,[16],87%
same,inhibition,[17],62%
same,inhibition,[18],73%
same,inhibition,[19],4.3%
same,inhibition,[20],82%
same,inhibition,[21],67%
same,inhibition,[22],7%
same,inhibition,[23],0.45%
same,inhibition,[24],96%
same,inhibition,[25],100%
same,inhibition,[26],23%
same,inhibition,[27],17%
